{"source": "patent US20170216439A1", "about": "“OTIC FORMULATIONS FOR THE TREATMENT OF CERUMINOSIS” (Otonomy, Inc., priority 2014, published 2017)", "origin": "cited, not measured here", "key": {"[1]": {"details": "for efficacy against tinnitus: in vivo"}, "bacterial lesions": {"test_system": "bacterial lesions", "details": "wild-type C57BL/6 and mutant flake mice"}}, "data": [{"smiles": "CCN(CC)CC(=O)Nc1c(C)cccc1C", "note": "[Lidocaine]", "values": [{"measurement": "reduces or eliminates the noise associated with tinnitus, share of sufferers", "setting": "[1]; administered by IV", "value": "60-80%"}]}, {"smiles": "CCCCCC/C=C\\CCCCCCCC(=O)O", "note": "[palmitoleate]", "values": [{"measurement": "size of bacterial lesions", "setting": "bacterial lesions", "value": "decrease the size of bacterial lesions"}]}, {"smiles": "Fc1ccc([C@@H]2CCNC[C@H]2COc2ccc3c(c2)OCO3)cc1", "note": "[paroxetine]", "values": [{"measurement": "efficacy against tinnitus", "setting": "[1]", "value": "demonstrated efficacy"}]}, {"smiles": "CCCCCCCC/C=C\\CCCCCCCC(=O)O", "note": "[oleic acid]", "values": [{"measurement": "inhibitory against S. aureus", "setting": "S. aureus", "value": "inhibitory"}, {"measurement": "inhibitory against S. pyogenes", "setting": "S. pyogenes", "value": "inhibitory"}]}, {"smiles": "CCCCCC/C=C\\CCCCCCCC(=O)O", "note": "[palmitoleic acid]", "values": [{"measurement": "inhibitory against S. aureus", "setting": "S. aureus", "value": "inhibitory"}, {"measurement": "inhibitory against S. pyogenes", "setting": "S. pyogenes", "value": "inhibitory"}]}, {"smiles": "CNCCC=C1c2ccccc2CCc2ccccc21", "note": "[nortriptyline]", "values": [{"measurement": "efficacy against tinnitus", "setting": "[1]", "value": "demonstrated efficacy"}]}, {"smiles": "CN[C@H]1CC[C@@H](c2ccc(Cl)c(Cl)c2)c2ccccc21", "note": "[sertraline]", "values": [{"measurement": "efficacy against tinnitus", "setting": "[1]", "value": "demonstrated efficacy"}]}]}
